The target in this experiment is Recombinant human ULK1 (1-649) (Homo sapiens (Human), UniProt O75385). In words: ULK1 ADP Glo kinase activity assay, new method (ULKtide peptide substrate). The conditions noted are these: 25° C., 40 minutes, read-out: ULK1 biochemical IC50. As for the experimental part:
Recombinant human ULK1 (1-649) protein expressed in Sf9 insect cells was obtained from SignalChem (Vancouver, BC), catalog #U01-11G. Active kinase was purified via N-terminal GST tag to >85% purity.
ADP GLO Kinase Assay Reagents were obtained from Promega Corp (Madison, WI), catalog #V9104.
Synthetic peptide substrate (ULKtide) with the amino acid sequence YANWLAASIYLDGKKK was obtained from ThermoFisher Scientific USA.
ULK1 inhibitor potency was determined using the luminescent ADP Glo Kinase Assay (Promega), a universal ADP detection system that measures kinase activity by quantifying the amount of ADP produced during a kinase reaction. ULK1 kinase reactions are performed in a standard 96-well microplate (20 μL reaction volume) at 25° C. for 40 minutes in the presence or absence of the test compound (12-point dilution series starting at 10 μM). Addition of peptide substrate and ATP initiates the kinase reaction.
The standard ADP Glo assay is performed in two steps. In step one, following the kinase reaction, an equal volume of ADP-Glo™ Reagent (20 μL) is added to terminate the kinase reaction and deplete the remaining ATP. In the second step, the Kinase Detection Reagent (10 μL) is added to simultaneously convert ADP to ATP and allow the newly synthesized ATP to be measured using a luciferase/luciferin reaction. Step two of the ADP Glo assay is performed in a white 384-well plate (20 μL final volume). Thirty minutes after the addition of the Detection reagent, light generated from the luciferase reaction is measured (1 second exposure) using a microplate compatible luminometer (CLARIOstar, BMG Labtech).
Inhibition of ULK1 kinase activity is determined for each test compound by comparison to DMSO only control wells. Inhibitor IC50 was calculated by plotting the change in luminescence after 30 minutes (response) versus inhibitor concentration (in log molar) then applying the four-parameter variable slope curve fit (GraphPad Prism). Inhibition of ULK1 in biochemical assay is found in Table 4.
Chain of Recombinant human ULK1 (1-649) (O75385 1-649): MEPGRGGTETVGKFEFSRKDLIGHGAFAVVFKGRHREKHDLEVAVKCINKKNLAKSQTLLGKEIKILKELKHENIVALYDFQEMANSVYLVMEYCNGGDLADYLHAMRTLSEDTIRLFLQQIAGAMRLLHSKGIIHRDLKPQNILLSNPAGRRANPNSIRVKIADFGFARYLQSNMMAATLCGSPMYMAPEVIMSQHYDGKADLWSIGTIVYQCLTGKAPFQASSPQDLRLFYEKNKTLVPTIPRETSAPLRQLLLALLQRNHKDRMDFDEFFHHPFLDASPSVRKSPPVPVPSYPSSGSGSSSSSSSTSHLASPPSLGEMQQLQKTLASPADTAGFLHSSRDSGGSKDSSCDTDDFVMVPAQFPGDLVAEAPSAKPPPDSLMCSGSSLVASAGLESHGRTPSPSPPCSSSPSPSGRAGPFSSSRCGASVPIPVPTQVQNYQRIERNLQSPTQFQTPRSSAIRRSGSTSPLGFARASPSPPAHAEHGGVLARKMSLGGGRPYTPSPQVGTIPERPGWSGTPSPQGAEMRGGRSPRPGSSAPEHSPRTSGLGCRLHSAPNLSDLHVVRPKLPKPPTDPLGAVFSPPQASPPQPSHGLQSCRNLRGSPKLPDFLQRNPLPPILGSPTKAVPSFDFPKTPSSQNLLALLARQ
As to `O=C1c2sc(-c3nc(Nc4cc5c(cc4Cl)CNCC5)ncc3C(F)(F)F)cc2S(=O)(=O)CCN1C1CCC1` [Example 158, 7-(2-((7-chloro-1,2,3,4-tetrahydroisoquinolin-6-yl)amino)-5-(trifluoromethyl)pyrimidin-4-yl)-4-cyclobutyl-3,4-dihydrothieno[2,3-f][1,4]thiazepin-5(2H)-one 1,1-dioxide], the IC50 was no more than 5 nM. As for `CN1CCS(=O)(=O)c2cc(-c3nc(Nc4cc5c(cc4Cl)CCNC5)ncc3C(F)(F)F)sc2C1=O` [Example 159, 7-(2-((6-chloro-1,2,3,4-tetrahydroisoquinolin-7-yl)amino)-5-(trifluoromethyl)pyrimidin-4-yl)-4-methyl-3,4-dihydrothieno[2,3-f][1,4]thiazepin-5(2H)-one 1,1-dioxide], the IC50 was no more than 5 nM.

Turning to `CCc1cc2c(cc1Nc1ncc(C(F)(F)F)c(-c3cc4c(s3)C(=O)N(C)CCS4(=O)=O)n1)CNC2` [Example 160, 7-(2-((6-ethylisoindolin-5-yl)amino)-5-(trifluoromethyl)pyrimidin-4-yl)-4-methyl-3,4-dihydrothieno[2,3-f][1,4]thiazepin-5(2H)-one 1,1-dioxide], the IC50 was no more than 5 nM. In the case of `CSc1cc2c(cc1Nc1ncc(C(F)(F)F)c(-c3cc4c(s3)C(=O)N(C)CCS4(=O)=O)n1)CCNC2` [Example 161, 4-methyl-7-(2-((7-(methylthio)-1,2,3,4-tetrahydroisoquinolin-6-yl)amino)-5-(trifluoromethyl)pyrimidin-4-yl)-3,4-dihydrothieno[2,3-f][1,4]thiazepin-5(2H)-one 1,1-dioxide] it was no more than 5 nM.

On to `CCN1CCc2cc(Nc3ncc(C(F)(F)F)c(-c4cc5c(s4)C(=O)N(C)CCS5(=O)=O)n3)c(Cl)cc2C1` [Example 162, 7-(2-((7-chloro-2-ethyl-1,2,3,4-tetrahydroisoquinolin-6-yl)amino)-5-(trifluoromethyl)pyrimidin-4-yl)-4-methyl-3,4-dihydrothieno[2,3-f][1,4]thiazepin-5(2H)-one 1,1-dioxide], for which the IC50 was no more than 5 nM. With `O=S1(=O)CCOCc2sc(-c3nc(Nc4cc5c(cc4Cl)CNCC5)ncc3C(F)(F)F)cc21` [Example 163, 7-(2-((7-chloro-1,2,3,4-tetrahydroisoquinolin-6-yl)amino)-5-(trifluoromethyl)pyrimidin-4-yl)-2,3-dihydro-5H-thieno[3,2-e][1,4]oxathiepine 1,1-dioxide] the figure was no more than 5 nM; with `CN1CCS(=O)(=O)c2cc(-c3nc(Nc4cc5c(cc4Cl)CNC5)ncc3C(F)(F)F)sc2C1=O` [Example 164, 7-(2-((6-chloroisoindolin-5-yl)amino)-5-(trifluoromethyl)pyrimidin-4-yl)-4-methyl-3,4-dihydrothieno[2,3-f][1,4]thiazepin-5(2H)-one 1,1-dioxide], no more than 5 nM; with `Cc1nn(C2CCNCC2)cc1Nc1ncc(C(F)(F)F)c(-c2cc3c(s2)C(=O)NCCS3(=O)=O)n1` [Example 165, 7-(2-((3-methyl-1-(piperidin-4-yl)-1H-pyrazol-4-yl)amino)-5-(trifluoromethyl)pyrimidin-4-yl)-3,4-dihydrothieno[2,3-f][1,4]thiazepin-5(2H)-one 1,1-dioxide], greater than 100 nM. Take `Cc1nn(C2CCNCC2)cc1Nc1ncc(C(F)(F)F)c(-c2cc3c(s2)C(=O)N(C)CCS3(=O)=O)n1` [Example 166, 4-methyl-7-(2-((3-methyl-1-(piperidin-4-yl)-1H-pyrazol-4-yl)amino)-5-(trifluoromethyl)pyrimidin-4-yl)-3,4-dihydrothieno[2,3-f][1,4]thiazepin-5(2H)-one 1,1-dioxide]: the IC50 is greater than 100 nM.

On to `CN1CCc2cc(Nc3ncc(C(F)(F)F)c(-c4cc5c(s4)C(=O)N(C4CC4)CCS5(=O)=O)n3)c(Cl)cc2C1` [Example 167, 7-(2-((7-chloro-2-methyl-1,2,3,4-tetrahydroisoquinolin-6-yl)amino)-5-(trifluoromethyl)pyrimidin-4-yl)-4-cyclopropyl-3,4-dihydrothieno[2,3-f][1,4]thiazepin-5(2H)-one 1,1-dioxide], for which the IC50 is no more than 5 nM. As for `CN1CCc2cc(Nc3ncc(C(F)(F)F)c(-c4cc5c(s4)C(=O)N(C4CCC4)CCS5(=O)=O)n3)c(Cl)cc2C1` [Example 168, 7-(2-((7-chloro-2-methyl-1,2,3,4-tetrahydroisoquinolin-6-yl)amino)-5-(trifluoromethyl)pyrimidin-4-yl)-4-cyclobutyl-3,4-dihydrothieno[2,3-f][1,4]thiazepin-5(2H)-one 1,1-dioxide], the IC50 was no more than 5 nM. As to `CN1CCc2cc(Cl)c(Nc3ncc(C(F)(F)F)c(-c4cc5c(s4)C(=O)N(C)CCS5(=O)=O)n3)cc2C1` [Example 169], the IC50 is no more than 5 nM. As for `CN1CCS(=O)(=O)c2cc(-c3nc(Nc4ccc5c(c4C4CC4)CNC5)ncc3C(F)(F)F)sc2C1=O` [Example 170, 7-(2-((4-cyclopropylisoindolin-5-yl)amino)-5-(trifluoromethyl)pyrimidin-4-yl)-4-methyl-3,4-dihydrothieno[2,3-f][1,4]thiazepin-5(2H)-one 1,1-dioxide], the IC50 lay within 10 to 50 nM. For the compound `CSc1cc2c(cc1Nc1ncc(C(F)(F)F)c(-c3cc4c(s3)C(=O)N(C)CCS4(=O)=O)n1)CCN(C)C2` [Example 171, 4-methyl-7-(2-((2-methyl-7-(methylthio)-1,2,3,4-tetrahydroisoquinolin-6-yl)amino)-5-(trifluoromethyl)pyrimidin-4-yl)-3,4-dihydrothieno[2,3-f][1,4]thiazepin-5(2H)-one 1,1-dioxide], the IC50 is no more than 5 nM. On to `CN1CCS(=O)(=O)c2cc(-c3nc(Nc4cc5c(cc4C4CC4)CNCC5)ncc3C(F)(F)F)sc2C1=O` [Example 173, 7-(2-((7-cyclopropyl-1,2,3,4-tetrahydroisoquinolin-6-yl)amino)-5-(trifluoromethyl)pyrimidin-4-yl)-4-methyl-3,4-dihydrothieno[2,3-f][1,4]thiazepin-5(2H)-one 1,1-dioxide], for which the IC50 is no more than 5 nM. With `CCc1cc(N2CCNCC2)ccc1Nc1ncc(C(F)(F)F)c(-c2cc3c(s2)C(=O)N(C)CCS3(=O)=O)n1` [Example 174, 7-(2-((2-ethyl-4-(piperazin-1-yl)phenyl)amino)-5-(trifluoromethyl)pyrimidin-4-yl)-4-methyl-3,4-dihydrothieno[2,3-f][1,4]thiazepin-5(2H)-one 1,1-dioxide] the figure was no more than 5 nM; with `CCc1cc2c(cc1Nc1ncc(C(F)(F)F)c(-c3cc4c(s3)C(=O)N(CC(F)(F)F)CCS4(=O)=O)n1)CCNC2` [Example 175, 7-(2-((7-ethyl-1,2,3,4-tetrahydroisoquinolin-6-yl)amino)-5-(trifluoromethyl)pyrimidin-4-yl)-4-(2,2,2-trifluoroethyl)-3,4-dihydrothieno[2,3-f][1,4]thiazepin-5(2H)-one 1,1-dioxide], no more than 5 nM. `Cc1c(Nc2ncc(C(F)(F)F)c(-c3cc4c(s3)C(=O)N(C)CCS4(=O)=O)n2)cnn1C1CCNCC1` [Example 176, 4-methyl-7-(2-((5-methyl-1-(piperidin-4-yl)-1H-pyrazol-4-yl)amino)-5-(trifluoromethyl)pyrimidin-4-yl)-3,4-dihydrothieno[2,3-f][1,4]thiazepin-5(2H)-one 1,1-dioxide]: the IC50 is greater than 100 nM. For the compound `CN1CCS(=O)(=O)c2cc(-c3nc(Nc4cc5c(cc4C4CC4)CNC5)ncc3C(F)(F)F)sc2C1=O` [Example 177, 7-(2-((6-cyclopropylisoindolin-5-yl)amino)-5-(trifluoromethyl)pyrimidin-4-yl)-4-methyl-3,4-dihydrothieno[2,3-f][1,4]thiazepin-5(2H)-one 1,1-dioxide], the IC50 is no more than 5 nM. On to `Cc1c(Nc2ncc(C(F)(F)F)c(-c3cc4c(s3)C(=O)NCCS4(=O)=O)n2)cnn1C1CCNCC1` [Example 178, 7-(2-((5-methyl-1-(piperidin-4-yl)-1H-pyrazol-4-yl)amino)-5-(trifluoromethyl)pyrimidin-4-yl)-3,4-dihydrothieno[2,3-f][1,4]thiazepin-5(2H)-one 1,1-dioxide], for which the IC50 was greater than 100 nM. In the case of `O=C1NCCS(=O)(=O)c2cc(-c3nc(Nc4cc5c(cc4Cl)CNC5)ncc3C(F)(F)F)sc21` [Example 180, 7-(2-((6-chloroisoindolin-5-yl)amino)-5-(trifluoromethyl)pyrimidin-4-yl)-3,4-dihydrothieno[2,3-f][1,4]thiazepin-5(2H)-one 1,1-dioxide], the IC50 was no more than 5 nM. Consider `CN1Cc2cc(Cl)c(Nc3ncc(C(F)(F)F)c(-c4cc5c(s4)C(=O)N(C)CCS5(=O)=O)n3)cc2C1` [Example 181, 7-(2-((6-chloro-2-methylisoindolin-5-yl)amino)-5-(trifluoromethyl)pyrimidin-4-yl)-4-methyl-3,4-dihydrothieno[2,3-f][1,4]thiazepin-5(2H)-one 1,1-dioxide], for which the IC50 is no more than 5 nM.

One may read the IC50 as the concentration that gives 50% inhibition.

The values are drawn from patent publication US20250144094A1 (Erasca, Inc., priority 2021, published 2025).
